Test results reported in the supplement of paper PMC10307832.

Experiments:
Test in all cases: relative viability (nuclei count vs DMSO), 5 days (fraction); higher = more cells survive
HOP-62 = test system: HOP-62
In short: (§1)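 Lung cancer cell lines were seeded in 1536-well plates and dosed by pin tool the next day, with either a single drug or a fixed anchor-drug dose combined with five library-drug doses (not always all listed) spaced in √10 steps. Five days later, one step fixed the cells and stained their nuclei (final 0.05% Triton X-100, 1% formaldehyde, 1 ug/ml Hoechst), and nuclei were counted on 4× images. Relative viability is the nuclei count in treated wells divided by the count in vehicle wells, and each value is the median of duplicate plates.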

NCI-H838 = test system: NCI-H838
In short: as §1

LU99A = test system: LU99A
In short: as §1

NCI-H1355 = test system: NCI-H1355
In short: as §1

NCI-H1993 = test system: NCI-H1993
In short: as §1

NCI-H1651 = test system: NCI-H1651
In short: as §1

NCI-H2085 = test system: NCI-H2085
In short: as §1

NCI-H2023 = test system: NCI-H2023
In short: as §1

NCI-H358 = test system: NCI-H358
In short: as §1

HCC-44 = test system: HCC-44
In short: as §1

NCI-H650 = test system: NCI-H650
In short: as §1

NCI-H2347 = test system: NCI-H2347
In short: as §1

COR-L23 = test system: COR-L23
In short: as §1

HARA = test system: HARA
In short: as §1

HCC-15 = test system: HCC-15
In short: as §1

NCI-H2126 = test system: NCI-H2126
In short: as §1

UMC-11 = test system: UMC-11
In short: as §1

SW 1573 = test system: SW 1573
In short: as §1

LC-2-ad = test system: LC-2-ad
In short: as §1

EPLC-272H = test system: EPLC-272H
In short: as §1

PC-14 = test system: PC-14
In short: as §1

NCI-H1915 = test system: NCI-H1915
In short: as §1

ABC-1 = test system: ABC-1
In short: as §1

SMILES: COc1nc(C)cnc1NS(=O)(=O)c1cccnc1-c1ccc(-c2nnco2)cc1 [Zibotentan] + Cc1cc(Nc2cc(N3CCN(C)CC3)nc(Sc3ccc(NC(=O)C4CC4)cc3)n2)n[nH]1 [Tozasertib] (partner 0.1 µM)
- relative viability (HOP-62; first compound 0.08 µM): 0.333
- relative viability (HOP-62; first compound 0.253 µM): 0.371
- relative viability (HOP-62; first compound 0.8 µM): 0.428
- relative viability (HOP-62; first compound 2.53 µM): 0.359
- relative viability (NCI-H838; first compound 0.08 µM): 0.284
- relative viability (NCI-H838; first compound 0.253 µM): 0.229
- relative viability (NCI-H838; first compound 0.8 µM): 0.274
- relative viability (NCI-H838; first compound 2.53 µM): 0.329
- relative viability (LU99A; first compound 0.08 µM): 0.319
- relative viability (LU99A; first compound 0.253 µM): 0.25
- relative viability (LU99A; first compound 0.8 µM): 0.302
- relative viability (LU99A; first compound 2.53 µM): 0.301
- relative viability (NCI-H1355; first compound 0.08 µM): 0.626
- relative viability (NCI-H1355; first compound 0.253 µM): 0.537
- relative viability (NCI-H1355; first compound 0.8 µM): 0.55
- relative viability (NCI-H1355; first compound 2.53 µM): 0.565
- relative viability (NCI-H1993; first compound 0.08 µM): 0.591
- relative viability (NCI-H1993; first compound 0.253 µM): 0.583
- relative viability (NCI-H1993; first compound 0.8 µM): 0.592
- relative viability (NCI-H1993; first compound 2.53 µM): 0.606
- relative viability (NCI-H1651; first compound 0.08 µM): 0.678
- relative viability (NCI-H1651; first compound 0.253 µM): 0.552
- relative viability (NCI-H1651; first compound 0.8 µM): 0.767
- relative viability (NCI-H1651; first compound 2.53 µM): 0.717
- relative viability (NCI-H2085; first compound 0.08 µM): 0.788
- relative viability (NCI-H2085; first compound 0.253 µM): 0.698
- relative viability (NCI-H2085; first compound 0.8 µM): 0.703
- relative viability (NCI-H2085; first compound 2.53 µM): 0.821
- relative viability (NCI-H2023; first compound 0.08 µM): 0.356
- relative viability (NCI-H2023; first compound 0.253 µM): 0.254
- relative viability (NCI-H2023; first compound 0.8 µM): 0.298
- relative viability (NCI-H2023; first compound 2.53 µM): 0.387
- relative viability (NCI-H358; first compound 0.08 µM): 0.0974
- relative viability (NCI-H358; first compound 0.253 µM): 0.099
- relative viability (NCI-H358; first compound 0.8 µM): 0.0954
- relative viability (NCI-H358; first compound 2.53 µM): 0.0945
- relative viability (HCC-44; first compound 0.08 µM): 1.33
- relative viability (HCC-44; first compound 0.8 µM): 0.852
- relative viability (HCC-44; first compound 2.53 µM): 0.862
- relative viability (NCI-H650; first compound 0.08 µM): 0.871
- relative viability (NCI-H650; first compound 0.253 µM): 0.699
- relative viability (NCI-H650; first compound 0.8 µM): 0.692
- relative viability (NCI-H650; first compound 2.53 µM): 0.738
- relative viability (NCI-H2347; first compound 0.253 µM): 0.49
- relative viability (NCI-H2347; first compound 0.8 µM): 0.432
- relative viability (NCI-H2347; first compound 2.53 µM): 0.537
- relative viability (COR-L23; first compound 0.08 µM): 0.218
- relative viability (COR-L23; first compound 0.253 µM): 0.216
- relative viability (COR-L23; first compound 0.8 µM): 0.224
- relative viability (COR-L23; first compound 2.53 µM): 0.337
- relative viability (HARA; first compound 0.08 µM): 0.0875
- relative viability (HARA; first compound 0.253 µM): 0.102
- relative viability (HARA; first compound 0.8 µM): 0.13
- relative viability (HARA; first compound 2.53 µM): 0.28
- relative viability (HCC-15; first compound 0.08 µM): 0.481
- relative viability (HCC-15; first compound 0.253 µM): 0.314
- relative viability (HCC-15; first compound 0.8 µM): 0.373
- relative viability (HCC-15; first compound 2.53 µM): 0.402
- relative viability (NCI-H2126; first compound 0.08 µM): 0.891
- relative viability (NCI-H2126; first compound 0.8 µM): 0.813
- relative viability (NCI-H2126; first compound 2.53 µM): 0.875
- relative viability (UMC-11; first compound 0.08 µM): 0.23
- relative viability (UMC-11; first compound 0.253 µM): 0.204
- relative viability (UMC-11; first compound 0.8 µM): 0.201
- relative viability (UMC-11; first compound 2.53 µM): 0.203
- relative viability (SW 1573; first compound 0.08 µM): 0.229
- relative viability (SW 1573; first compound 0.8 µM): 0.257
- relative viability (SW 1573; first compound 2.53 µM): 0.221
- relative viability (LC-2-ad; first compound 0.08 µM): 0.436
- relative viability (LC-2-ad; first compound 0.8 µM): 0.574
- relative viability (LC-2-ad; first compound 2.53 µM): 0.452
- relative viability (EPLC-272H; first compound 0.08 µM): 0.264
- relative viability (EPLC-272H; first compound 0.253 µM): 0.234
- relative viability (EPLC-272H; first compound 0.8 µM): 0.331
- relative viability (EPLC-272H; first compound 2.53 µM): 0.281
- relative viability (PC-14; first compound 0.08 µM): 0.555
- relative viability (PC-14; first compound 0.253 µM): 0.527
- relative viability (PC-14; first compound 0.8 µM): 0.583
- relative viability (PC-14; first compound 2.53 µM): 0.567
- relative viability (NCI-H1915; first compound 0.08 µM): 0.453
- relative viability (NCI-H1915; first compound 0.253 µM): 0.409
- relative viability (NCI-H1915; first compound 0.8 µM): 0.428
- relative viability (NCI-H1915; first compound 2.53 µM): 0.417
- relative viability (ABC-1; first compound 0.08 µM): 0.175
- relative viability (ABC-1; first compound 0.253 µM): 0.163
- relative viability (ABC-1; first compound 0.8 µM): 0.193
- relative viability (ABC-1; first compound 2.53 µM): 0.201
